According to US12077503B2, “Substituted cyclic amides and their use as herbicides” (FMC CORPORATION, priority 2015, dated 2024):

Experiments:
Assay type in all cases: in vivo
[1] = tested on: giant foxtail (Setaria faberii); experiment: Test A postemergence
How it was run: (§1)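 Preemergence directed soil spray on seeded pots, or postemergence application to plants 2–10 cm, one- to two-leaf. Solvent mixture non-phytotoxic, with surfactant. Scored ~10 d later, visually, 0–100 vs untreated.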

[2] = tested on: pigweed (Amaranthus retroflexus); experiment: Test A postemergence
How it was run: as §1

[3] = tested on: barnyardgrass (Echinochloa crus-galli); experiment: Test A postemergence
How it was run: as §1

[4] = tested on: corn (Zea mays); experiment: Test A postemergence
How it was run: as §1

[5] = tested on: Galium (catchweed bedstraw, Galium aparine); experiment: Test A postemergence
How it was run: as §1

[6] = tested on: wheat (Triticum aestivum); experiment: Test A postemergence
How it was run: as §1

[7] = tested on: ryegrass, Italian (Italian ryegrass, Lolium multiflorum); experiment: Test A postemergence
How it was run: as §1

[8] = tested on: blackgrass (Alopecurus myosuroides); experiment: Test A postemergence
How it was run: as §1

[9] = tested on: Kochia (Kochia scoparia); experiment: Test A postemergence
How it was run: as §1

[10] = tested on: ragweed (common ragweed, Ambrosia elatior); experiment: Test A postemergence
How it was run: as §1

[11] = tested on: giant foxtail (Setaria faberii); experiment: Test A preemergence; details: Preemergence
Text: (§2) Seeds of plant species selected from barnyardgrass (Echinochloa crus-galli), Kochia (Kochia scoparia), ragweed (common ragweed, Ambrosia elatior), ryegrass, Italian (Italian ryegrass, Lolium multiflorum), crabgrass, large (Digitaria sanguinalis), giant foxtail (Setaria faberii), green foxtail (Setaria viridis), morningglory (Ipomoea spp.), pigweed (Amaranthus retroflexus), velvetleaf (Abutilon theophrasti), wheat (Triticum aestivum), and corn (Zea mays) were planted into a blend of loam soil and sand and treated preemergence with a directed soil spray using test chemicals formulated in anon-phytotoxic solvent mixture which included a surfactant.
(§3) At the same time, plants selected from these crop and weed species and also blackgrass (Alopecurus myosuroides), and Galium (catchweed bedstraw, Galium aparine) were planted in pots containing the same blend of loam soil and sand and treated with postemergence applications of test chemicals formulated in the same manner. Plants ranged in height from 2 to 10 cm and were in the one- to two-leaf stage for the postemergence treatment. Treated plants and untreated controls were maintained in a greenhouse for approximately 10 d, after which time all treated plants were compared to untreated controls and visually evaluated for injury. Plant response ratings, summarized in Table A, are based on a 0 to 100 scale where 0 is no effect and 100 is complete control. A dash (-) response means no test result.

[12] = tested on: pigweed (Amaranthus retroflexus); experiment: Test A preemergence; details: Preemergence
Text: as §2, §3

[13] = tested on: barnyardgrass (Echinochloa crus-galli); experiment: Test A preemergence; details: Preemergence
Text: as §2, §3

[14] = tested on: ryegrass, Italian (Italian ryegrass, Lolium multiflorum); experiment: Test A preemergence; details: Preemergence
Text: as §2, §3

[15] = tested on: Kochia (Kochia scoparia); experiment: Test A preemergence; details: Preemergence
Text: as §2, §3

[16] = tested on: ragweed (common ragweed, Ambrosia elatior); experiment: Test A preemergence; details: Preemergence
Text: as §2, §3

[17] = tested on: rice (Oryra sativa); experiment: Test B flooded paddy test; details: Flood, 250 g ai/ha; 0 to 100 scale where 0 is no effect and 100 is complete control; 13 to 15 d
Procedure: (§4) Plant species in the flooded paddy test selected from rice (Oryra sativa), sedge, umbrella (small-flower umbrella sedge, Cyperus difformis), ducksalad (Heteranthera limosa), and barnyardgrass (Echinochloa crus-galli) were grown to the 2-leaf stage for testing. At time of treatment, test pots were flooded to 3 cm above the soil surface, treated by application of test compounds directly to the paddy water, and then maintained at that water depth for the duration of the test. Treated plants and controls were maintained in a greenhouse for 13 to 15 d, after which time all species were compared to controls and visually evaluated. Plant response ratings, summarized in Table B, are based on a scale of 0 to 100 where 0 is no effect and 100 is complete control. A dash (-) response means no test result.

[18] = tested on: barnyardgrass (Echinochloa crus-galli); experiment: Test B flooded paddy test; details: Flood, 250 g ai/ha; 0 to 100 scale where 0 is no effect and 100 is complete control; 13 to 15 d
Procedure: as §4

[19] = tested on: sedge, umbrella (small-flower umbrella sedge, Cyperus difformis); experiment: Test B flooded paddy test; details: Flood, 250 g ai/ha; 0 to 100 scale where 0 is no effect and 100 is complete control; 13 to 15 d
Procedure: as §4

[20] = tested on: ducksalad (Heteranthera limosa); experiment: Test B flooded paddy test; details: Flood, 250 g ai/ha; 0 to 100 scale where 0 is no effect and 100 is complete control; 13 to 15 d
Procedure: as §4

[21] = 125 g ai/ha, postemergence, visual injury rating on 0 to 100 scale (0 no effect, 100 complete control), approx. 10 d
[22] = Postemergence, 500 g ai/ha, 0 to 100 scale where 0 is no effect and 100 is complete control
[23] = 125 g ai/ha, visual injury after approximately 10 d, 0 to 100 scale where 0 is no effect and 100 is complete control
[24] = 500 g ai/ha, visual injury approx. 10 d

## O=C1NCC(c2ccnc(C(F)(F)F)c2)C1C(=O)Nc1ccccc1F (racemic) [Compound 513]
[1]; [21]
  Foxtail, Giant plant response rating: 80
[1]; [22]
  Plant response rating, Foxtail, Giant: 80
[2]; [21]
  Pigweed plant response rating: 30
[2]; [22]
  Plant response rating, Pigweed: 60
[3]; [21]
  Barnyardgrass plant response rating: 80
[3]; [22]
  Plant response rating, Barnyardgrass: 90
[4]; [21]
  Corn plant response rating: 20
[4]; [22]
  Plant response rating, Corn: 60
[5]; [21]
  Galium plant response rating: 0
[5]; [22]
  Plant response rating, Galium: 40
[6]; [21]
  Wheat plant response rating: 0
[6]; [22]
  Plant response rating, Wheat: 30
[7]; [21]
  Ryegrass, Italian plant response rating: 0
[7]; [22]
  Plant response rating, Ryegrass, Italian: 30
[8]; [21]
  Blackgrass plant response rating: 20
[8]; [22]
  Plant response rating, Blackgrass: 40
[9]; [21]
  Kochia plant response rating: 20
[9]; [22]
  Plant response rating, Kochia: 50
[10]; [21]
  Ragweed plant response rating: 10
[10]; [22]
  Plant response rating, Ragweed: 20
[11]; [23]
  Plant response rating, Foxtail, Giant: 90
[11]; [24]
  Foxtail, Giant plant response rating (0 to 100 scale, 0 is no effect, 100 is complete control): 90
[12]; [23]
  Plant response rating, Pigweed: 0
[12]; [24]
  Pigweed plant response rating (0 to 100 scale, 0 is no effect, 100 is complete control): 0
[13]; [23]
  Plant response rating, Barnyardgrass: 40
[13]; [24]
  Barnyardgrass plant response rating (0 to 100 scale, 0 is no effect, 100 is complete control): 90
[14]; [23]
  Plant response rating, Ryegrass, Italian: 20
[14]; [24]
  Ryegrass, Italian plant response rating (0 to 100 scale, 0 is no effect, 100 is complete control): 30
[15]; [23]
  Plant response rating, Kochia: 0
[15]; [24]
  Kochia plant response rating (0 to 100 scale, 0 is no effect, 100 is complete control): 20
[16]; [23]
  Plant response rating, Ragweed: 0
[16]; [24]
  Ragweed plant response rating (0 to 100 scale, 0 is no effect, 100 is complete control): 0
[17]
  Plant response rating, Rice: 30
[18]
  Plant response rating, Barnyardgrass: 30
[19]
  Plant response rating, Sedge, Umbrella: 0
[20]
  Plant response rating, Ducksalad: 90
